This is an account of results in ChEMBL document CHEMBL5137036, “Design and synthesis of highly TRAIL expression HDAC inhibitors based on ONC201 to promote apoptosis of colorectal cancer” (Eur J Med Chem, 2022).

Activity calls are given as the source filed them. The rule behind the calls is not given here.

In assay [1] the target is T1, Histone deacetylase 1 (Homo sapiens, UniProt Q13547). The assay is described as follows: Inhibition of human HDAC1 assessed as residual activity at 1 uM using RHKKAc fluorogenic peptide as substrate preincubated for 10 mins followed by substrate addition by fluorescence based analysis relative to control.
T1 sequence (Q13547 whole entry): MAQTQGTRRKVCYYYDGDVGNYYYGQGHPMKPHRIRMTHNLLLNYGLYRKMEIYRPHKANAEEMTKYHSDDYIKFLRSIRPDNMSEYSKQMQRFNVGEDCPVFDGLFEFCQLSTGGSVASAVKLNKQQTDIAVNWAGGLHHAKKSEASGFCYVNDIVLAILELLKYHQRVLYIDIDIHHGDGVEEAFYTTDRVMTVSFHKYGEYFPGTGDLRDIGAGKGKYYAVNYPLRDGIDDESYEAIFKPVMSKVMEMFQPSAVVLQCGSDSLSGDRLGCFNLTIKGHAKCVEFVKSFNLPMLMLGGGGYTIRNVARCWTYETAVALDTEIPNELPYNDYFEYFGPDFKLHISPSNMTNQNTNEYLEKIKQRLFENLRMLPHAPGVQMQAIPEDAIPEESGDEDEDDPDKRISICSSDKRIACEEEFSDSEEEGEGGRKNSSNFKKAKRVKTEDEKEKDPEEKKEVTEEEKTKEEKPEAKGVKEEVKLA
Assay [2] deals with HCT-116. The assay is described as follows: Antiproliferative activity against human HCT-116 cells assessed as inhibition of cell growth incubated for 72 hrs by luminescence based analysis. The format is functional. Conditions: HCT-116, 72 h.
Assay [3] deals with T1, Histone deacetylase 1. Kind of assay: Inhibition of human HDAC1 using RHKKAc fluorogenic peptide as substrate preincubated for 10 mins followed by substrate addition by fluorescence based analysis.
Assay [4] relates to HepG2. Kind of assay: Antiproliferative activity against human HepG2 cells assessed as inhibition of cell growth incubated for 72 hrs by luminescence based analysis. Particulars: HepG2, 72 h. It is filed as functional.
In assay [5] the test system is MV4-11. The assay is described as follows: Antiproliferative activity against human MV4-11 cells assessed as inhibition of cell growth incubated for 72 hrs by luminescence based analysis. Particulars: MV4-11, 72 h. It is filed as functional.
Assay [6] deals with HCT-116. The assay is described as follows: Antiproliferative activity against human HCT-116 cells assessed as residual activity at 2 uM incubated for 72 hrs by luminescence based analysis relative to control. The format is functional.
The subject of assay [7] is HCT-116. The assay is described as follows: Induction of apoptosis in human HCT-116 cells assessed as early apoptotic cells at 0.5 uM incubated for 24 hrs by AnnexinV-FITC/PI staining based flow cytometry (reference value: 0.93 %). It is filed as functional. On the technique in general: Flow cytometry measures light scatter and fluorescence of single cells or particles in a stream.

For assay [8], the system named is HCT-116. The assay is described as follows: Induction of apoptosis in human HCT-116 cells assessed as dead cells at 0.5 uM incubated for 24 hrs by AnnexinV-FITC/PI staining based flow cytometry (reference value: 4.62 %). It is filed as functional.
Assay [9] has as its system HCT-116. The assay is described as follows: Induction of apoptosis in human HCT-116 cells assessed as viable cells at 0.5 uM incubated for 24 hrs by AnnexinV-FITC/PI staining based flow cytometry (reference value: 93.64%). The format is functional. Conditions: read-out: Activity.
For assay [10], the system named is HCT-116. Kind of assay: Induction of apoptosis in human HCT-116 cells assessed as late apoptotic cells at 0.5 uM incubated for 24 hrs by AnnexinV-FITC/PI staining based flow cytometry (reference value: 0.82 %). The format is functional.
Assay [11] concerns the target T1, Histone deacetylase 1. Kind of assay: Inhibition of HDAC1 in human HCT-116 cells assessed as increase in DR5 protein expression at 0.5 uM incubated for 12 hrs by Western blot analysis. The format is cell-based. On the technique in general: A western blot detects proteins with antibodies after separation by electrophoresis.

Take `Nc1ccccc1NC(=O)c1ccc(CN2CCC3=C(C2)C(=O)N(Cc2cccc(F)c2)C2=NCCN23)cc1`: the Activity in assay [1] was 49.1%.
Still for that read-out and setting: for `Nc1ccccc1NC(=O)c1ccc(CN2CCC3=C(C2)C(=O)N(Cc2cccnc2)C2=NCCN23)cc1` the value was 46.4%.
With `Cc1ccccc1CN1C(=O)C2=C(CCN(Cc3ccc(C(=O)Nc4ccccc4N)cc3)C2)N2CCN=C12`, the IC50 in assay [2] was 1080 nM; in assay [3] it was 253 nM; in [4], 3560 nM; in [5], 801 nM.
As to `Nc1ccccc1NC(=O)c1ccc(CN2C(=O)C(CCCc3ccccc3)=C(O)N3CCN=C23)cc1`, the IC50 in assay [3] came out at 600 nM.
`Cc1ccc(/C=C/C(=O)N2CCC3=C(C2)C(=O)N(Cc2ccc(C(=O)Nc4ccccc4N)cc2)C2=NCCN23)o1`: the IC50 in assay [3] is 377 nM; in assay [4], 4520 nM; in assay [5] it was 2430 nM. Besides, the Activity in assay [6] is recorded as 79.55%.
Consider `NC1=C(CCCc2ccccc2)C(=O)N(Cc2ccc(C(=O)Nc3ccc(F)cc3N)cc2)C2=NCCN21`, for which half-maximal inhibition in [3] (IC50) required 413 nM.
Regarding `N#Cc1ccc(CN2C(=O)C3=C(CCN(Cc4ccc(C(=O)Nc5ccccc5N)cc4)C3)N3CCN=C23)cc1`, the IC50 stood at 967 nM in assay [2], 174 nM in assay [3], 4720 nM in [4] and 957 nM in assay [5].
In the case of `Cc1ccccc1CN1CCC2=C(C1)C(=O)N(Cc1ccc(C(=O)Nc3ccc(F)cc3N)cc1)C1=NCCN12`, in [1], the Activity is 68%.
The same measure, in the same setting: for `Nc1cc(F)ccc1NC(=O)c1ccc(CN2C(=O)C3=C(CCN(Cc4ccccc4)C3)N3CCN=C23)cc1` the value was 78.3%.
The same measure, in the same setting: with `COc1ccc(CN2CCC3=C(C2)C(=O)N(Cc2ccc(C(=O)Nc4ccccc4N)cc2)C2=NCCN23)cc1` the figure was 44.4%.
`Nc1cc(F)ccc1NC(=O)c1ccc(CNC(=O)/C=C/c2cccnc2)cc1` [TUCIDINOSTAT]: the Activity in assay [7] is on record as 1.22%; in assay [8] it was 8.27%; in assay [10], 1.66%. Besides, the IC50 was 2000 nM in [4] and 783 nM in assay [5]. Besides, the viability at 0.5 µM in assay [9] came to 88.8%.
As to `CC(c1ccccc1)N1C(=O)C2=C(CCN(Cc3ccc(C(=O)Nc4ccccc4N)cc3)C2)N2CCN=C21` (stereo not drawn), the Activity in assay [1] stood at 46.3%.
In the case of `Nc1ccccc1NC(=O)c1ccc(CN2C(=O)C3=C(CCN(Cc4ccc(Cl)c(C(F)(F)F)c4)C3)N3CCN=C23)cc1`, the Activity in [1] is 52.2%.
The same measure, in the same setting: with `CNC1=C(CCCc2ccccc2)C(=O)N(Cc2ccc(C(=O)Nc3ccccc3N)cc2)C2=NCCN21` the figure was 63.8%.
For the compound `Nc1ccccc1NC(=O)c1ccc(CN2C(=O)C3=C(CCN(Cc4ccc5ccccc5c4)C3)N3CCN=C23)cc1`, the Activity in assay [1] came to 58.1%.
Take `NC1=C(CCNC(=O)c2ccccc2)C(=O)N(Cc2ccc(C(=O)Nc3ccccc3N)cc2)C2=NCCN21`: the IC50 in assay [3] worked out at 273 nM; in assay [4] it was 1270 nM; in [5], 828 nM. The Activity in assay [6] is listed as 88.98%.
For the compound `Nc1ccccc1NC(=O)c1ccc(CN2C(=O)C3=C(CCN(Cc4nc5ccccc5[nH]4)C3)N3CCN=C23)cc1`, the Activity in assay [1] amounted to 58.3%.
Take `NC1=C(CCCc2ccccc2)C(=O)N(Cc2ccc(C(=O)Nc3ccccc3N)cc2)C2=NCCN21`: the IC50 amounted to 673 nM in assay [2], 66.9 nM in [3], 4490 nM in assay [4] and 1270 nM in [5]. Besides, in assay [11], the inhibition entry was “Active”.
`Nc1ccccc1NC(=O)c1ccc(CN2C(=O)C3=C(CCN(C(=O)/C=C/c4ccc(Cl)cc4F)C3)N3CCN=C23)cc1`: the IC50 in assay [2] was 662 nM; in assay [3] it was 278 nM; in assay [4] it was 6170 nM; in assay [5] it was 1450 nM.
In the case of `Nc1ccccc1NC(=O)c1ccc(CN2C(=O)C3=C(CCN(Cc4ccccc4)C3)N3CCN=C23)cc1`, the IC50 stood at 1450 nM in assay [2], 198 nM in [3], 4000 nM in [4] and 753 nM in assay [5]. Further, in assay [11], the inhibition result is “Active”.

Usually IC50 stands for the concentration that inhibits the measured activity by half.
